Test results from US6576271B2, “Method for inhibiting inflammation using bioflavonoids” (Board of Trustees operating Michigan State University, priority 1998, dated 2003).
Read-outs that look alike come from different tables or passages of the source. Blank lines part the entries; values can stand above or below the molecule they belong to.

How the values were obtained:
[1] = target: T1, PGHS-1 enzyme (Ovis aries, UniProt P05979); assay: Cyclooxygenase activity of PGHS-1, initial rate of O2 uptake (Example 4); assay type: biochemical, ram
T1 construct: a microsomal fraction of ram seminal vesicles containing PGHS-1 enzyme; tissue Oxford Biomedical Research (Oxford, Mich.); host or cells: ram seminal vesicles (microsomal fraction)
T1 sequence (P05979 25-600): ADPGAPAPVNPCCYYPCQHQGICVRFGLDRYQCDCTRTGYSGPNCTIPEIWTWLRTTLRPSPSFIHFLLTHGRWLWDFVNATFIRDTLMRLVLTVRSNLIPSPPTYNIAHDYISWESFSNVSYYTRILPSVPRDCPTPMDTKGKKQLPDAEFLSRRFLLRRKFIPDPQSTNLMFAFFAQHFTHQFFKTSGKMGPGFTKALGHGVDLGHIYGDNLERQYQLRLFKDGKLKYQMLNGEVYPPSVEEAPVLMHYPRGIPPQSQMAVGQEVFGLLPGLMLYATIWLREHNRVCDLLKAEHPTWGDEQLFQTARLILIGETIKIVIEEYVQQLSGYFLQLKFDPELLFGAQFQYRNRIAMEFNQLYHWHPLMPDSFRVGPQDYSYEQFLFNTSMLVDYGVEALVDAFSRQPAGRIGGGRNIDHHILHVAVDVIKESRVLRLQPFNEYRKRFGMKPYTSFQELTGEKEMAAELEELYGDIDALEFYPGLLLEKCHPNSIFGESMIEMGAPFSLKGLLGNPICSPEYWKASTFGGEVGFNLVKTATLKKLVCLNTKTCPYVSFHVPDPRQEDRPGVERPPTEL

[2] = target: T2, PGHS-1 (COX-1) (Ovis aries, UniProt P05979); assay: COX-1 inhibition by flavonoids and isoflavonoids, O2 uptake (Example 5); assay type: biochemical; conditions: for COX-1 inhibitory activity: FIG. 9, 200 μm concentrations; for COX-1 inhibitory activity among isoflavonoids: COX-1/COX-2 stated together; for PGHS-1 (COX-1) inhibition: at 1000 μM concentrations
T2 construct: purchased Oxford Biomedical Research (Oxford, Mich., USA)
T2 sequence (P05979 25-600): T1 sequence (P05979 25-600)
Source text: (§1) This is an antiinflammatory assay for cyclooxygenase inhibition activity of flavonoids and isoflavonoids. Arachidonic acid and microsomal suspensions of PGHS-1 (COX-1) and COX-2 (PGHS-2) were purchased from Oxford Biomedical Research (Oxford, Mich., USA). Genistein, genistin, naringenin, quercetin, 5,8,4′-trihydroxy-6,7-dimethoxyflavone, kaempferol-3-rutinoside and 3′-methoxy kaempferol 3-rutinoside were purified from BALATON tart cherry by HPLC and were identified by ^1H- and ^13C NMR spectral data. Daidzein and formononetin were purchased from Research Plus, Inc. (Bayonne, N.J., USA). […] Luteolin was purchased from Adams Chemical Co. (Round Lake, Ill., USA).
For measuring the COX activity, flavonoids or isoflavonoids were dissolved in DMSO to yield 40 mM stock solution and was further diluted to the desired concentration according to the COX-1/COX-2 inhibitory activity of each compound assayed.
Anti-inflammatory assay: COX activities were measured using microsomal suspensions of PGHS-1 and PGHS-2. Microsomal membranes (5 mg protein/mL in 0.1 M Tris HCl, pH 7.4) were prepared and assayed on the same day. COX-1 and COX-2 assay was performed at 37° C. controlled by a circulation bath (Model-1166, VWR Scientific Products, Chicago, Ill.) by monitoring the rate of O2 uptake using a 5357 Oxygen electrode (INSTECH Laboratory, Plymouth Meeting, Pa.) (Meade, E. A., et al., J. Biol. Chem. 268 6610-6614 (1993)).
Each assay mixture contained 600 μL of 0.1 M Tris-HCl, pH 8.0, 1 mM phenol, 17 μg hemoglobin and 10 μM arachidonate and were mixed in a microchamber (INSTECH Laboratory, Plymouth Meeting, Pa., USA). […] Reactions were initiated by adding […] of microsomal protein (5 μL). Instantaneous inhibition was determined by measuring the cyclooxygenase activity initiated by adding microsomal suspensions of PGHS-1 or PGHS-2 in the assay mixtures containing 10 μM arachidonate and various concentrations of test compounds. […] The kinetics of the enzyme activity was monitored by Biological Oxygen Monitor (YSI model 5300, Yellow Springs Instrument CO., Inc., Yellow Springs, Ohio) and collected in Quicklog Data Acquisition and Control computer software (Strawberry Tree Inc., Sunnyvale, Calif., USA).
The COX-1/COX-2 activity of BALATON cherry bioflavonoids was determined by monitoring the O2 uptake. Reactions were initiated by adding PGHS enzyme preparation. One unit of cyclooxygenase represents oxygenation of 1 nmol of arachidonate/min under the standard assay condition by the COX enzyme. This assay was a modification of the assay reported by DeWitt et al. (Dewitt D. L., et al., J. Biol. Chem. 265 5192-5198 (1990)). […] This methodology can also be used for COX-2 assay as well using COX-2 enzyme. […] COX-1 inhibitory activities of flavonoids, kaempferol, quercetin, luteolin, quercetin 3-rhamnoside, 5,8,4′-trihydroxy-6,7-dimethoxyflavone were compared. Kaempferol 3-rutinoside, 3′-methoxy kaempferol 3-rutinoside and naringenin (FIG. 9), and five isoflavonoids, genistein, genistin, daidzein, formononetin and biochanin A (FIG. 8).
COX-1/COX-2 inhibitory activities of each compound at different concentrations was calculated by comparing the tangent of O2 uptake curves of test compounds with that of blank control. Each assay was repeated 3 times and the IC50 values (50 inhibitory concentrations) were calculated by linear regression analysis.

[3] = target: cyclooxygenase; conditions: cited from earlier work; for COX inhibition: literature reports
[4] = target: T3, COX-2 (PGHS-2) (Homo sapiens, UniProt P35354); assay: COX-2 inhibition by flavonoids and isoflavonoids, O2 uptake (Example 5); assay type: biochemical; conditions: COX-1/COX-2 stated together
T3 construct: purchased Oxford Biomedical Research (Oxford, Mich., USA)
T3 sequence (P35354 18-604): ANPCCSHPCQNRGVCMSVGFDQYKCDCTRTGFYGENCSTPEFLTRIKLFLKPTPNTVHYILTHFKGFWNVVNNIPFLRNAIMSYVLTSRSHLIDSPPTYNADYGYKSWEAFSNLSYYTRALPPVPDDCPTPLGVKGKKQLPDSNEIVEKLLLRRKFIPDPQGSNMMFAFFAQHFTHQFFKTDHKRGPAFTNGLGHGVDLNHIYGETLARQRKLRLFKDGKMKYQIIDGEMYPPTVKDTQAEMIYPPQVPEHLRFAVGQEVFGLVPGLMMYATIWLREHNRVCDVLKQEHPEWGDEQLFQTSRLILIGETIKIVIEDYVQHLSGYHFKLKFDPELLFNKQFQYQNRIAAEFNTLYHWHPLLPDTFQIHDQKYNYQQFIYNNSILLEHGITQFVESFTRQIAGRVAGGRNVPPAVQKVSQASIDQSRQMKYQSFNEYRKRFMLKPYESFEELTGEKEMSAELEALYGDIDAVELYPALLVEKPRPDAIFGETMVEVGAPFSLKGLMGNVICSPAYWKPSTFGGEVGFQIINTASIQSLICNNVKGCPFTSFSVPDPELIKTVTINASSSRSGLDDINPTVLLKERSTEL
Source text: as §1, with “Ill., USA). […]” for “Ill., USA).”
Anti-inflammatory assay: COX activities were measured using microsomal suspensions of PGHS-1 and PGHS-2. […]
Each assay mixture contained 600 μL of 0.1 M Tris-HCl, pH 8.0, 1 mM phenol, 17 μg hemoglobin and 10 μM arachidonate and were mixed in a microchamber (INSTECH Laboratory, Plymouth Meeting, Pa., USA). […] Instantaneous inhibition was determined by measuring the cyclooxygenase activity initiated by adding microsomal suspensions of PGHS-1 or PGHS-2 in the assay mixtures containing 10 μM arachidonate and various concentrations of test compounds. […]
The COX-1/COX-2 activity of BALATON cherry bioflavonoids was determined by monitoring the O2 uptake. […]

[5] = Tsuda et al. 1994; cited from earlier work
[6] = Sanchez De Medina et al. 1996; cited from earlier work
[7] = mean of triplicate, FIGS. 10 and 11, read-out: IC50 for inhibition of PGHS-1 enzyme (COX-1)

SMILES: O=c1cc(-c2ccc(O)c(O)c2)oc2cc(O)cc(O)c12 [luteolin]
IC50 [2, 7]: 300 µM

SMILES: O=c1c(O)c(-c2ccccc2)oc2cc(O)cc(O)c12 [galangin]
IC50 ([3]; Wurm et al. 1982, read-out: IC50 cyclooxygenase inhibition): 5.5 µM

SMILES: O=c1c(-c2ccc(O)cc2)coc2cc(O)ccc12 [daidzein]
IC50 [2]: 400 µM

SMILES: O=c1c(-c2ccc(O)cc2)coc2cc(O[C@@H]3O[C@H](CO)[C@@H](O)[C@H](O)[C@H]3O)cc(O)c12 [genistin]
COX-1 inhibitory activity among isoflavonoids [2]: dramatically decreased
COX-2 inhibitory activity among isoflavonoids [4]: dramatically decreased

SMILES: O=c1cc(-c2ccccc2)oc2ccccc12 [unsubstituted flavone, flavone]
COX inhibition [3]: good COX inhibitor

SMILES: OC[C@H]1O[C@@H](Oc2cc3c(O)cc(O)cc3[o+]c2-c2ccc(O)c(O)c2)[C@H](O)[C@@H](O)[C@@H]1O [cyanidin-3-glucoside]
antioxidant activities [5]: strong antioxidant activities

SMILES: C[C@H]1O[C@H](OC[C@H]2O[C@@H](Oc3c(-c4ccc(O)cc4)oc4cc(O)cc(O)c4c3=O)[C@H](O)[C@@H](O)[C@@H]2O)[C@@H](O)[C@@H](O)[C@@H]1O [Kaempferol 3-rutinoside]
PGHS-1 (COX-1) inhibition [2]: not active

SMILES: O=C1C[C@@H](c2ccc(O)cc2)Oc2cc(O)cc(O)c21 [naringenin]
COX-1 inhibitory activity [2]: dramatically decreased

SMILES: Oc1cc(O)c2cc(O)c(-c3ccc(O)c(O)c3)[o+]c2c1 [cyanidin]
IC50 ([1]; inhibition of cyclooxygenase activity, FIG. 7): 90 µM

SMILES: CC(C)=CCc1c(-c2ccc(O)cc2O)oc2c3c(cc(O)c2c1=O)OC(C)(C)C=C3 [morusin]
COX inhibition [3]: active

SMILES: C[C@@H]1O[C@@H](Oc2c(-c3ccc(O)c(O)c3)oc3cc(O)cc(O)c3c2=O)[C@H](O)[C@H](O)[C@H]1O [quercetin 3-rhamnoside]
in vivo anti-inflammatory activity [6]: reported to have in vivo anti-inflammatory activity
COX-1 inhibitory activity [2]: not active

SMILES: O=c1c(O)c(-c2ccc(O)c(O)c2)oc2cc(O)cc(O)c12 [quercetin]
PGHS-1 (COX-1) inhibition [2]: not active
IC50 [2, 7]: 350 µM

The next lines start with the values.

effect on activity of enzyme at higher concentrations ([1]; higher concentrations than 300-nM, enzyme (PGHS-1/PGHS-2) not specified): increased the activity of enzyme
SMILES: C[C@@H]1O[C@@H](OC[C@H]2O[C@@H](Oc3cc4c(O)cc(O)cc4[o+]c3-c3ccc(O)c(O)c3)[C@H](O[C@@H]3O[C@H](CO)[C@@H](O)[C@H](O)[C@H]3O)[C@@H](O)[C@@H]2O)[C@H](O)[C@H](O)[C@H]1O [anthocyanin 1]

COX-1 inhibitory activity [2]: highest COX-1 inhibition
IC50 [2, 7]: 180 µM
SMILES: O=c1c(O)c(-c2ccc(O)cc2)oc2cc(O)cc(O)c12 [kaempferol]

COX-1 inhibitory activity [2]: little or no COX-1 inhibition
PGHS-1 (COX-1) inhibition [2]: not active
SMILES: COc1c(OC)c(O)c2c(=O)cc(-c3ccc(O)cc3)oc2c1O [5,8,4′-trihydroxy-6,7-dimethoxyflavone]

PGHS-1 (COX-1) inhibition [2]: not active
SMILES: COc1cc(-c2oc3cc(O)cc(O)c3c(=O)c2O[C@@H]2O[C@H](CO[C@@H]3O[C@@H](C)[C@H](O)[C@@H](O)[C@H]3O)[C@@H](O)[C@H](O)[C@H]2O)ccc1O [3′-methoxy kaempferol 3-rutinoside]

IC50 [2, 7]: 350 µM
SMILES: COc1ccc(-c2coc3cc(O)cc(O)c3c2=O)cc1 [biochanin A]

IC50 [2]: 80 µM
COX-1 inhibitory activity among isoflavonoids [2]: highest COX-1/COX-2 inhibitory activity
COX-2 inhibitory activity among isoflavonoids [4]: highest COX-1/COX-2 inhibitory activity
SMILES: O=c1c(-c2ccc(O)cc2)coc2cc(O)cc(O)c12 [genistein]
